Data on 1 compound can be found in ChEMBL document CHEMBL3813632, “Thiazolo[3,2-a]benzimidazol-3(2H)-one derivatives: Structure-activity relationships of selective nucleotide pyrophosphatase/phosphodiesterase1 (NPP1) inhibitors” (Bioorg Med Chem, 2016).

The structures appear in SMILES notation. Active and inactive are the calls of the source. The calls are words filed in the database; no cut-off is given here.

For assay [1], the target named is T1, Alkaline phosphatase, tissue-nonspecific isozyme (Homo sapiens) (UniProt P05186).
T1 sequence (whole entry): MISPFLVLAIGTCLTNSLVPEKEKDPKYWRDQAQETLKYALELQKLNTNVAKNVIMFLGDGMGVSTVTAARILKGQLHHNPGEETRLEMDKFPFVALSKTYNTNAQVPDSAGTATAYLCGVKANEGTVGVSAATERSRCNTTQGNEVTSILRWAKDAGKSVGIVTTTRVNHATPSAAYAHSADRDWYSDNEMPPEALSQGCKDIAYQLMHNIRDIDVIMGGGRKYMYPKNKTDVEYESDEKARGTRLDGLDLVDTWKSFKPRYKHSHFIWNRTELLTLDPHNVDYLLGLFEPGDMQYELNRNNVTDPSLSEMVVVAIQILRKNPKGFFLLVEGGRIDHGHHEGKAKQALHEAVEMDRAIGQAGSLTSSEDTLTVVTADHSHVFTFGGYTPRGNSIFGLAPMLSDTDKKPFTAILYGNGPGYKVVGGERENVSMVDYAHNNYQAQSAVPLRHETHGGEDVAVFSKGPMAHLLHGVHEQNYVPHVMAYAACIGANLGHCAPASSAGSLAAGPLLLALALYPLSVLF
In words: Inhibition of human recombinant TNAP expressed in NS0 cells using p-nitrophenyl phosphate as substrate at 10 to 1000 uM preincubated with substrate followed by protein addition and subsequent incubation for 30 mins by colorimetric analysis.

The target of assay [2] is T2, Ectonucleotide pyrophosphatase/phosphodiesterase family member 1 (Homo sapiens, UniProt P22413).
T2 sequence (P22413 whole entry): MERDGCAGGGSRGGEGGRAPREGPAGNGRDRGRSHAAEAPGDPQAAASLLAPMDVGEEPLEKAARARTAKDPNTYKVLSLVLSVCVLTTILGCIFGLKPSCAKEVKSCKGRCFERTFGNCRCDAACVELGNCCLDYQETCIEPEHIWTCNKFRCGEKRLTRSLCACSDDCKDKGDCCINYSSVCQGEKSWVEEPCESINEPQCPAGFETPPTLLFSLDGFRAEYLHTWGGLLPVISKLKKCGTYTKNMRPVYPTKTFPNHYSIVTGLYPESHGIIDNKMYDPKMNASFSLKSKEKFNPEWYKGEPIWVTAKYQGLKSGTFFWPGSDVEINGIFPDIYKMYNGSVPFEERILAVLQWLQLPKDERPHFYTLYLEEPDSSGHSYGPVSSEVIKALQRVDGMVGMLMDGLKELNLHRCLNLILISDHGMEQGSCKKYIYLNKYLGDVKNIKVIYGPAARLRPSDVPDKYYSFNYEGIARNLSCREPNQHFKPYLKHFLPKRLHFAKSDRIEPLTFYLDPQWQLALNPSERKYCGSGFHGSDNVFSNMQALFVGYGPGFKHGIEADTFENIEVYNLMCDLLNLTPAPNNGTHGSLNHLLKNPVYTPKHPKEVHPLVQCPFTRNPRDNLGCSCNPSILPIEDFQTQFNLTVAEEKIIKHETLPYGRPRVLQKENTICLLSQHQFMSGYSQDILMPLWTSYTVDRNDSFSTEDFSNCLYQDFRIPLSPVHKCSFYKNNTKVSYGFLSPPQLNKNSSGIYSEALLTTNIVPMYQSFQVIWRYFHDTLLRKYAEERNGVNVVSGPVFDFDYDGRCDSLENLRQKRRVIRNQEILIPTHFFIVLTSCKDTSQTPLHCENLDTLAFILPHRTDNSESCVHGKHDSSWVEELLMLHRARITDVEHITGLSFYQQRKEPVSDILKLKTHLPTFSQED
Briefly: Inhibition of human recombinant NPP1 expressed in insect SF9 cells using ATP as substrate preincubated with substrate followed by protein addition and subsequent incubation for 30 mins by capillary electrophoresis.

In assay [3] the target is T3, Ectonucleoside triphosphate diphosphohydrolase 3 (Homo sapiens) (UniProt O75355).
T3 sequence (whole entry): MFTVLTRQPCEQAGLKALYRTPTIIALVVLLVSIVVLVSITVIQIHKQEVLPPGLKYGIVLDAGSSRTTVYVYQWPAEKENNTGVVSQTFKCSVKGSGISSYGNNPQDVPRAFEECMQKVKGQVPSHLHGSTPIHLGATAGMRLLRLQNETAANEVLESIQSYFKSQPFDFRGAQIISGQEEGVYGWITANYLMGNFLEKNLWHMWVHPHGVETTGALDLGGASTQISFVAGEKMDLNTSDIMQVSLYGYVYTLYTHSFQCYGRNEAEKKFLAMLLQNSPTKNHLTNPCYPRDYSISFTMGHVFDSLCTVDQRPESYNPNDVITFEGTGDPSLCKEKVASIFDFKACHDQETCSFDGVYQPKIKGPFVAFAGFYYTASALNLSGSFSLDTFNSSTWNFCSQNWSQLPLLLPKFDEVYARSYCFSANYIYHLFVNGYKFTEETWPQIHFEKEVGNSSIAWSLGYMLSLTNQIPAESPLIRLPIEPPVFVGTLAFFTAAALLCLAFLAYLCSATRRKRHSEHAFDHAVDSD
In words: Inhibition of human recombinant NTPDase3 expressed in NS0 cells using ATP as substrate at 10 to 1000 uM preincubated with substrate followed by protein addition and subsequent incubation for 30 mins by capillary electrophoresis.

For the next assay, the species on record is Homo sapiens. Briefly: Selectivity ratio of Ki for human recombinant soluble NTPDase3 to Ki for human recombinant NPP1.

One may read the Ki as a dissociation constant, usually derived from enzyme kinetics or from competition with a known ligand. For `O=c1/c(=C/c2ccc(I)o2)sc2nc3ccccc3n12`, the inhibition result in assay [1] and in assay [3] was “inactive” in each case. For the same compound, the Ki in assay [2] came to 467 nM. Further, the Ratio Ki in the assay listed under Homo sapiens is 1000.
